Laboratory results as given in US7250413B2, “C-25 carbamate rifamycin derivatives with activity against drug-resistant microbes” (Cumbre Pharmaceuticals Inc., priority 2004, dated 2007).
In brackets after ≈: the same amount, converted by molar mass.

What was measured:
Test in all cases: MIC, microbroth dilution
Format in all cases: cell-based
[1] = system: Enterococcus faecalis ATCC29212; conditions: rifS, BHI Broth, 37° C., read-out: MIC
Method: (§1) Representative compounds were assayed for antimicrobial activity as follows: Minimum Inhibitory Concentrations (“MICs”) were determined by the microbroth dilution method as per NCCLS guidelines (National Committee for Clinical Laboratory Standards, 2000), except that all growth incubations were conducted at 37° C. Bacterial cultures were tested in the following bacteriological media: S. aureus, S. epidermidis, and E. coli in Cation-Adjusted Mueller-Hinton Broth, S. pneumoniae in THY Broth supplemented with 1 mg/mL catalase under 5% CO2 atmosphere, S. pyogenes in THY Broth, E. faecalis in BHI Broth, H. influenzae in BHI Broth supplemented with 0.75 μL of 1 mg/mL NAD and 150 μL of 1 mg/ml hematin per 5 mL, and M smegmatis in Middlebrook Broth plus ADC Enrichment.

[2] = system: Mycobacterium smegmatis ATCC700084; conditions: Mycolicibacterium smegmatis, ATCC700084; rifS; Middlebrook Broth plus ADC Enrichment, 37° C.; read-out: MIC
Method: as §1

[3] = system: Staphylococcus aureus ATCC29213; conditions: rifS, Cation-Adjusted Mueller-Hinton Broth, 37° C., read-out: MIC
Method: as §1

Row | MIC [1] [µg/mL] | MIC [2] [µg/mL] | MIC [3] [µg/mL] | SMILES
1 | 0.25 to 62 (≈ 0.289 to 71.7 µM) | 0.063 to 31 | 0.002 to 1.95 (≈ 0.00231 to 2.25 µM) | CO[C@H]1/C=C/O[C@@]2(C)Oc3c(C)c(O)c4c(c3C2=O)C(=O)C(N2CCOCC2)=C(NC(=O)/C(C)=C\C=C\[C@H](C)[C@H](O)[C@@H](C)[C@@H](O)[C@@H](C)[C@H](OC(=O)N2CCN(C)CC2)[C@@H]1C)C4=O [Example 6, 25-O-Desacetyl-(1-carbonyl-4-methyl-piperazine) 3-morpholino rifamycin S]
2 | 0.25 to 62 (≈ 0.218 to 54.1 µM) | 0.063 to 31 | 0.002 to 1.95 (≈ 0.00175 to 1.7 µM) | COc1cncc(NC(=O)c2ccc(N3CCN(C(=O)O[C@H]4[C@H](C)[C@H](O)[C@H](C)[C@@H](O)[C@@H](C)/C=C/C=C(/C)C(=O)NC5=C(N6CCOCC6)C(=O)c6c(c(O)c(C)c7c6C(=O)[C@@](C)(O/C=C/[C@H](OC)[C@H]4C)O7)C5=O)CC3)c(C(F)(F)F)c2)c1 [Example 53, 25-O-Desacetyl-(carbonyl-N-(5-methoxy-pyridin-3-yl)-4-piperazin-1-yl-3-trifluoromethyl-benzamide) 3-morpholino rifamycin S]
3 | 0.25 to 62 (≈ 0.299 to 74.2 µM) | 0.063 to 31 | 0.002 to 1.95 (≈ 0.00239 to 2.33 µM) | CO[C@H]1/C=C/O[C@@]2(C)Oc3c(C)c(O)c4c(c3C2=O)C(=O)C(N2CCOCC2)=C(NC(=O)/C(C)=C\C=C\[C@H](C)[C@H](O)[C@@H](C)[C@@H](O)[C@@H](C)[C@H](OC(=O)N2CCCC2)[C@@H]1C)C4=O [Example 14, 25-O-Desacetyl-(carbonyl-1-pyrrolidino) 3-morpholino rifamycin S]
4 | 0.25 to 62 (≈ 0.275 to 68.3 µM) | 0.063 to 31 | 0.002 to 1.95 (≈ 0.0022 to 2.15 µM) | CO[C@H]1/C=C/O[C@@]2(C)Oc3c(C)c(O)c4c(c3C2=O)C(=O)C(N2CCOCC2)=C(NC(=O)/C(C)=C\C=C\[C@H](C)[C@H](O)[C@@H](C)[C@@H](O)[C@@H](C)[C@H](OC(=O)NCCN2CCN(C)CC2)[C@@H]1C)C4=O [Example 9, 25-O-Desacetyl-(1-carbonyl-2-(4-methyl-piperazin-1-yl)-ethylamine) 3-morpholino rifamycin S]
5 | 0.25 to 62 (≈ 0.268 to 66.4 µM) | 0.063 to 31 | 0.002 to 1.95 (≈ 0.00214 to 2.09 µM) | CO[C@H]1/C=C/O[C@@]2(C)Oc3c(C)c(O)c4c(c3C2=O)C(=O)C(N2CCOCC2)=C(NC(=O)/C(C)=C\C=C\[C@H](C)[C@H](O)[C@@H](C)[C@@H](O)[C@@H](C)[C@H](OC(=O)N2CCC(N3CCCCC3)CC2)[C@@H]1C)C4=O [Example 35, 25-O-Desacetyl-(carbonyl-[1,4′]bipiperidinyl) 3-morpholino rifamycin S]
6 | 0.25 to 62 (≈ 0.277 to 68.7 µM) | 0.063 to 31 | 0.002 to 1.95 (≈ 0.00222 to 2.16 µM) | COc1ccc(CNC(=O)O[C@H]2[C@H](C)[C@H](O)[C@H](C)[C@@H](O)[C@@H](C)/C=C/C=C(/C)C(=O)NC3=C(N4CCOCC4)C(=O)c4c(c(O)c(C)c5c4C(=O)[C@@](C)(O/C=C/[C@H](OC)[C@H]2C)O5)C3=O)cc1 [Example 26, 25-O-Desacetyl-(carbonyl-4-methoxybenzylamino) 3-morpholino rifamycin S]
7 | 0.25 to 62 (≈ 0.265 to 65.6 µM) | 0.063 to 31 | 0.002 to 1.95 (≈ 0.00212 to 2.06 µM) | CO[C@H]1/C=C/O[C@@]2(C)Oc3c(C)c(O)c4c(c3C2=O)C(=O)C(N2CCOCC2)=C(NC(=O)/C(C)=C\C=C\[C@H](C)[C@H](O)[C@@H](C)[C@@H](O)[C@@H](C)[C@H](OC(=O)N2CCN(c3ccc(F)cc3)CC2)[C@@H]1C)C4=O [Example 12, 25-O-Desacetyl-(1-carbonyl-1-(4-fluorophenyl)-piperazine) 3-morpholino rifamycin S]

More lines, now with the values behind:

Row | SMILES | MIC [1] [µg/mL] | MIC [2] [µg/mL] | MIC [3] [µg/mL]
8 | COc1c(N2CCN(C(=O)C3CN(C(=O)O[C@H]4[C@H](C)[C@H](O)[C@H](C)[C@@H](O)[C@@H](C)/C=C/C=C(/C)C(=O)NC5=C(N6CCOCC6)C(=O)c6c(c(O)c(C)c7c6C(=O)[C@@](C)(O/C=C/[C@H](OC)[C@H]4C)O7)C5=O)C3)CC2)c(F)cc2c(=O)c(C(=O)O)cn(C3CC3)c12 [Example 66] | 0.25 to 62 (≈ 0.207 to 51.3 µM) | 0.063 to 31 | 0.002 to 1.95 (≈ 0.00165 to 1.61 µM)
9 | Cc1cc2cc(NC(=O)c3ccc(N4CCNCC4)c(C(F)(F)F)c3)ccc2[nH]1 [Example 50, N-(2-Methyl-1H-indol-5-yl)-4-piperazin-1-yl-3-trifluoromethyl-benzamide] | 0.25 to 62 (≈ 0.621 to 154 µM) | 0.063 to 31 | 0.002 to 1.95 (≈ 0.00497 to 4.85 µM)
10 | CO[C@H]1/C=C/O[C@@]2(C)Oc3c(C)c(O)c4c(c3C2=O)C(=O)C(N2CCOCC2)=C(NC(=O)/C(C)=C\C=C\[C@H](C)[C@H](O)[C@@H](C)[C@@H](O)[C@@H](C)[C@H](OC(=O)NCc2cnc3ccccc3c2)[C@@H]1C)C4=O [Example 41, 25-O-Desacetyl-(carbonyl-N-quinolin-3-yl-methylamino) 3-morpholino rifamycin S] | 0.25 to 62 (≈ 0.271 to 67.2 µM) | 0.063 to 31 | 0.002 to 1.95 (≈ 0.00217 to 2.11 µM)
11 | CO[C@H]1/C=C/O[C@@]2(C)Oc3c(C)c(O)c4c(c3C2=O)C(=O)C(N2CCOCC2)=C(NC(=O)/C(C)=C\C=C\[C@H](C)[C@H](O)[C@@H](C)[C@@H](O)[C@@H](C)[C@H](OC(=O)N2CCN(c3c(F)cc5c(=O)c(C(=O)O)cn(C6CC6)c5c3Cl)CC2)[C@@H]1C)C4=O [Example 17, 25-O-Desacetyl-(8-chloro-1-cyclopropyl-7-[4-(1-carbonyl)-piperazin-1-yl]-6-fluoro-4-oxo-1,4-dihydro-quinoline-3-carboxylic acid) 3-morpholino rifamycin S] | 0.25 to 62 (≈ 0.221 to 54.8 µM) | 0.063 to 31 | 0.002 to 1.95 (≈ 0.00177 to 1.72 µM)
12 | CO[C@H]1/C=C/O[C@@]2(C)Oc3c(C)c(O)c4c(c3C2=O)C(=O)C(N2CCOCC2)=C(NC(=O)/C(C)=C\C=C\[C@H](C)[C@H](O)[C@@H](C)[C@@H](O)[C@@H](C)[C@H](OC(=O)NCCCn2ccnc2)[C@@H]1C)C4=O [Example 11, 25-O-Desacetyl-(1-carbonyl-3-imidazol-1-yl-propylamine) 3-morpholino rifamycin S] | 0.25 to 62 (≈ 0.281 to 69.7 µM) | 0.063 to 31 | 0.002 to 1.95 (≈ 0.00225 to 2.19 µM)
13 | CO[C@H]1/C=C/O[C@@]2(C)Oc3c(C)c(O)c4c(c3C2=O)C(=O)C(N2CCOCC2)=C(NC(=O)/C(C)=C\C=C\[C@H](C)[C@@H]2OC(C)(C)O[C@@H]([C@@H](C)[C@H](OC(=O)n3cc[n+](Cc5ccccc5)c3)[C@@H]1C)[C@@H]2C)C4=O [Example 5, 1-Benzyl-3-(25-O-desacetyl-(carbonyl-cyclic-21,23-(1-methylethylideneacetal) 3-morpholinorifamycin S))-3H-imidazol-1-ium] | 0.25 to 62 | 0.063 to 31 | 0.002 to 1.95
14 | CO[C@H]1/C=C/O[C@@]2(C)Oc3c(C)c(O)c4c(c3C2=O)C(=O)C(N2CCOCC2)=C(NC(=O)/C(C)=C\C=C\[C@H](C)[C@H](O)[C@@H](C)[C@@H](O)[C@@H](C)[C@H](OC(=O)NCCO)[C@@H]1C)C4=O [Example 20, 25-O-Desacetyl-(1-carbonyl-2-aminoethanol) 3-morpholino rifamycin S] | 0.25 to 62 (≈ 0.303 to 75.1 µM) | 0.063 to 31 | 0.002 to 1.95 (≈ 0.00242 to 2.36 µM)
15 | C=CCNC(=O)O[C@H]1[C@H](C)[C@H](O)[C@H](C)[C@@H](O)[C@@H](C)/C=C/C=C(/C)C(=O)NC2=C(N3CCOCC3)C(=O)c3c(c(O)c(C)c4c3C(=O)[C@@](C)(O/C=C/[C@H](OC)[C@H]1C)O4)C2=O [Example 8, 25-O-Desacetyl-(carbonyl-allylamino) 3-morpholino rifamycin S] | 0.25 to 62 (≈ 0.304 to 75.4 µM) | 0.063 to 31 | 0.002 to 1.95 (≈ 0.00243 to 2.37 µM)
16 | CO[C@H]1/C=C/O[C@@]2(C)Oc3c(C)c(O)c4c(c3C2=O)C(=O)C(N2CCOCC2)=C(NC(=O)/C(C)=C\C=C\[C@H](C)[C@H](O)[C@@H](C)[C@@H](O)[C@@H](C)[C@H](OC(=O)NCC(=O)NC2CCN(c3c(F)cc5c(=O)c(C(=O)O)cn(C6CC6)c5c3Cl)C2)[C@@H]1C)C4=O (stereo partly drawn) [Example 63] | 0.25 to 62 (≈ 0.21 to 52.2 µM) | 0.063 to 31 | 0.002 to 1.95 (≈ 0.00168 to 1.64 µM)
17 | CO[C@H]1/C=C/O[C@@]2(C)Oc3c(C)c(O)c4c(c3C2=O)C(=O)C(N2CCOCC2)=C(NC(=O)/C(C)=C\C=C\[C@H](C)[C@@H]2OC(C)(C)O[C@@H]([C@@H](C)[C@H](OC(=O)n3ccnc3)[C@@H]1C)[C@@H]2C)C4=O [Example 4] | 0.25 to 62 (≈ 0.286 to 71 µM) | 0.063 to 31 | 0.002 to 1.95 (≈ 0.00229 to 2.23 µM)
18 | CO[C@H]1/C=C/O[C@@]2(C)Oc3c(C)c(O)c4c(c3C2=O)C(=O)C(N2CCOCC2)=C(NC(=O)/C(C)=C\C=C\[C@H](C)[C@H](O)[C@@H](C)[C@@H](O)[C@@H](C)[C@H](OC(=O)N2CCN(c3ccc(C(=O)Nc5ccc6[nH]c(C)cc6c5)cc3C(F)(F)F)CC2)[C@@H]1C)C4=O [Example 51, 25-O-Desacetyl-(carbonyl-N-(2-methyl-1H-indol-5-yl)-4-piperazin-1-yl-3-trifluoromethyl-benzamide) 3-morpholino rifamycin S] | 0.25 to 62 (≈ 0.214 to 53.1 µM) | 0.063 to 31 | 0.002 to 1.95 (≈ 0.00171 to 1.67 µM)
19 | COc1c(N2CCN(C3CCN(C(=O)O[C@H]4[C@H](C)[C@H](O)[C@H](C)[C@@H](O)[C@@H](C)/C=C/C=C(/C)C(=O)NC5=C(N6CCOCC6)C(=O)c6c(c(O)c(C)c7c6C(=O)[C@@](C)(O/C=C/[C@H](OC)[C@H]4C)O7)C5=O)CC3)CC2)c(F)cc2c(=O)c(C(=O)O)cn(C3CC3)c12 [Example 60] | 0.25 to 62 (≈ 0.207 to 51.3 µM) | 0.063 to 31 | 0.002 to 1.95 (≈ 0.00165 to 1.61 µM)
20 | CO[C@H]1/C=C/O[C@@]2(C)Oc3c(C)c(O)c4c(c3C2=O)C(=O)C(N2CCOCC2)=C(NC(=O)/C(C)=C\C=C\[C@H](C)[C@H](O)[C@@H](C)[C@@H](O)[C@@H](C)[C@H](OC(=O)NCc2cc(C(C)=O)no2)[C@@H]1C)C4=O [Example 48] | 0.25 to 62 (≈ 0.276 to 68.5 µM) | 0.063 to 31 | 0.002 to 1.95 (≈ 0.00221 to 2.15 µM)
21 | C#CCNC(=O)O[C@H]1[C@H](C)[C@H](O)[C@H](C)[C@@H](O)[C@@H](C)/C=C/C=C(/C)C(=O)NC2=C(N3CCOCC3)C(=O)c3c(c(O)c(C)c4c3C(=O)[C@@](C)(O/C=C/[C@H](OC)[C@H]1C)O4)C2=O [Example 43, 25-O-Desacetyl-(carbonyl-prop-2-ynylamino) 3-morpholino rifamycin S] | 0.25 to 62 (≈ 0.305 to 75.6 µM) | 0.063 to 31 | 0.002 to 1.95 (≈ 0.00244 to 2.38 µM)
